Laboratory results as given in patent US5840684A, “Glycopeptide antibiotic derivatives” (Eli Lilly and Company, priority 1995, dated 1998).
Converted amounts (≈) assume the structure as drawn.

What was measured:
[1] = test system: Staphylococcus aureus S13E; assay type: cell-based
Protocol: (§1) The MIC's were determined using a standard broth micro-dilution assay.

[2] = test system: Staphylococcus haemolyticus 105; assay: broth micro-dilution MIC; assay type: cell-based
Protocol: (§2) The formula I compounds have in vitro and in vivo activity against Gram-positive pathogenic bacteria. The MIC's were determined using a standard broth micro-dilution assay.

[3] = test system: Streptococcus pneumoniae P1; assay: broth micro-dilution MIC; assay type: cell-based
Protocol: as §2

[4] = test system: Haemophilus influenzae RD; assay: broth micro-dilution MIC; assay type: cell-based; details: Haemophilus influenzae RD
Protocol: as §2

[5] = test system: Staphylococcus epidermidis 270; assay: broth micro-dilution MIC; assay type: cell-based
Protocol: as §2

Entercoccus faecium 180 = assay: broth micro-dilution MIC; assay type: cell-based; details: Entercoccus faecium 180
Protocol: as §2

[6] = test system: Staphylococcus haemolyticus 415; assay: broth micro-dilution MIC; assay type: cell-based
Protocol: as §2

[7] = test system: vancomycin-resistant enterococci; assay: broth micro-dilution, mean geometric MIC; assay type: cell-based, Enterococcus faecium and Enterococcus faecalis; details: enterococci, 24-hour incubation
[8] = test system: Streptococcus pyogenes C203; assay: broth micro-dilution MIC; assay type: cell-based
Protocol: as §1

[9] = test system: Staphylococcus aureus X400; assay: broth micro-dilution MIC; assay type: cell-based
Protocol: as §1

[10] = test system: Staphylococcus aureus 446; assay: broth micro-dilution MIC; assay type: cell-based
Protocol: as §1

[11] = test system: Staphylococcus aureus 447; assay: broth micro-dilution MIC; assay type: cell-based
Protocol: as §1

[12] = test system: Entercoccus faecium 180-1; assay: broth micro-dilution MIC; assay type: cell-based
Protocol: as §1

[13] = test system: Staphylococcus aureus 489; assay: broth micro-dilution MIC; assay type: cell-based
Protocol: as §1

[14] = test system: Staphylococcus aureus SA1199A; assay: broth micro-dilution MIC; assay type: cell-based
Protocol: as §1

Entercoccus faecium 276 = assay: broth micro-dilution MIC; assay type: cell-based
Protocol: as §1

[15] = test system: vancomycin-susceptible enterococci; assay: broth micro-dilution, mean geometric MIC; assay type: cell-based, Enterococcus faecium and Enterococcus faecalis; details: enterococci, 24-hour incubation
[16] = test system: Staphylococcus aureus SA1199B; assay type: cell-based
Protocol: as §1

Entercoccus faecium 2041 = assay: broth micro-dilution MIC; assay type: cell-based; details: Entercoccus faecium 2041
Protocol: as §2

[17] = test system: Enterococcus gallinarum 245; assay: broth micro-dilution MIC; assay type: cell-based; details: Enterococcus gallinarum 245
Protocol: as §2

[18] = test system: Staphylococcus aureus SA1199; assay: broth micro-dilution MIC; assay type: cell-based
Protocol: as §1

[19] = test system: Staphylococcus aureus X778; assay: broth micro-dilution MIC; assay type: cell-based
Protocol: as §1

SMILES	MIC [1] [µg/mL]	MIC [2] [µg/mL]	MIC [3] [µg/mL]	MIC [4] [µg/mL]	MIC [5] [µg/mL]	MIC (Entercoccus faecium 180) [µg/mL]	MIC [6] [µg/mL]	mean geometric MIC, Vancomycin Resistant Strains [7] [µg/mL]	MIC [8] [µg/mL]	MIC [10] [µg/mL]	MIC [11] [µg/mL]	MIC [12] [µg/mL]	MIC [14] [µg/mL]	MIC (Entercoccus faecium 276) [µg/mL]	mean geometric MIC, Vancomycin Sensitive Strains [15] [µg/mL]	MIC [16] [µg/mL]	MIC (Entercoccus faecium 2041) [µg/mL]	MIC [17] [µg/mL]	MIC [18] [µg/mL]	MIC [19] [µg/mL]	further results
CNC(CC(C)C)C(=O)NC1C(=O)NC(CC(N)=O)C(=O)NC2C(=O)NC3C(=O)NC(C(=O)NC(C(=O)O)c4cc(O)cc(O)c4-c4cc3ccc4O)C(OC3CC(C)(N)C(O)C(C)O3)c3ccc(c(Cl)c3)Oc3cc2cc(c3OC2OC(CO)C(O)C(O)C2OC2CC(C)(NCc3c(OC)ccc4ccccc34)C(O)C(C)O2)Oc2ccc(cc2Cl)C1O (stereo not drawn) [Compound 9]	0.5 (≈ 0.284 µM)	4 (≈ 2.27 µM)	≤ 0.06	≤ 0.06	16 (≈ 9.08 µM)	1 (≈ 0.567 µM)	4 (≈ 2.27 µM)	11	≤ 0.06	2 (≈ 1.13 µM)	4 (≈ 2.27 µM)	≤ 0.06	≤ 0.06	0.26 (≈ 0.148 µM)	0.38						MIC [9]: 0.5 µg/mL (≈ 0.284 µM); MIC [13]: 0.5 µg/mL (≈ 0.284 µM)
CNC(CC(C)C)C(=O)NC1C(=O)NC(CC(N)=O)C(=O)NC2C(=O)NC3C(=O)NC(C(=O)NC(C(=O)O)c4cc(O)cc(O)c4-c4cc3ccc4O)C(OC3CC(C)(N)C(O)C(C)O3)c3ccc(c(Cl)c3)Oc3cc2cc(c3OC2OC(CO)C(O)C(O)C2OC2CC(C)(NCCCCCCCCOc3ccc(OC)cc3)C(O)C(C)O2)Oc2ccc(cc2Cl)C1O (stereo not drawn) [Compound 200]	0.5 (≈ 0.274 µM)	1 (≈ 0.547 µM)	≤ 0.06	32 (≈ 17.5 µM)			2 (≈ 1.09 µM)	1.4	≤ 0.06	1 (≈ 0.547 µM)	0.5 (≈ 0.274 µM)	≤ 0.06	≤ 0.06	0.5 (≈ 0.274 µM)	0.041	1 (≈ 0.547 µM)	≤ 0.06	2 (≈ 1.09 µM)	1 (≈ 0.547 µM)	0.5 (≈ 0.274 µM)	MIC [9]: 1 µg/mL (≈ 0.547 µM)
CNC(CC(C)C)C(=O)NC1C(=O)NC(CC(N)=O)C(=O)NC2C(=O)NC3C(=O)NC(C(=O)NC(C(=O)O)c4cc(O)cc(O)c4-c4cc3ccc4O)C(OC3CC(C)(N)C(O)C(C)O3)c3ccc(c(Cl)c3)Oc3cc2cc(c3OC2OC(CO)C(O)C(O)C2OC2CC(C)(NCc3ccc(OC(F)F)cc3)C(O)C(C)O2)Oc2ccc(cc2Cl)C1O (stereo not drawn) [Compound 72]	≤ 0.06	1 (≈ 0.572 µM)		32 (≈ 18.3 µM)		0.5 (≈ 0.286 µM)	4 (≈ 2.29 µM)	4.7		2 (≈ 1.14 µM)	1 (≈ 0.572 µM)	≤ 0.06	≤ 0.06	≤ 0.06	0.28	≤ 0.06	≤ 0.06	4 (≈ 2.29 µM)	1 (≈ 0.572 µM)		MIC [13]: ≤ 0.06 µg/mL
CNC(CC(C)C)C(=O)NC1C(=O)NC(CC(N)=O)C(=O)NC2C(=O)NC3C(=O)NC(C(=O)NC(C(=O)O)c4cc(O)cc(O)c4-c4cc3ccc4O)C(OC3CC(C)(N)C(O)C(C)O3)c3ccc(c(Cl)c3)Oc3cc2cc(c3OC2OC(CO)C(O)C(O)C2OC2CC(C)(NCc3ccc(-c4ccccc4C)cc3)C(O)C(C)O2)Oc2ccc(cc2Cl)C1O (stereo not drawn) [Compound 209]	0.5 (≈ 0.282 µM)	0.5 (≈ 0.282 µM)	≤ 0.06	16 (≈ 9.03 µM)	0.15 (≈ 0.0846 µM)	≤ 0.06	1 (≈ 0.564 µM)	1.2	≤ 0.06	1 (≈ 0.564 µM)	1 (≈ 0.564 µM)	≤ 0.06	≤ 0.06		0.136	0.5 (≈ 0.282 µM)	≤ 0.06	1 (≈ 0.564 µM)		1 (≈ 0.564 µM)	MIC [9]: 1 µg/mL (≈ 0.564 µM); MIC [13]: 1 µg/mL (≈ 0.564 µM)
CNC(CC(C)C)C(=O)NC1C(=O)NC(CC(N)=O)C(=O)NC2C(=O)NC3C(=O)NC(C(=O)NC(C(=O)O)c4cc(O)cc(O)c4-c4cc3ccc4O)C(OC3CC(C)(N)C(O)C(C)O3)c3ccc(c(Cl)c3)Oc3cc2cc(c3OC2OC(CO)C(O)C(O)C2OC2CC(C)(NCc3ccc(-c4ccc(C)c(C)c4)cc3)C(O)C(C)O2)Oc2ccc(cc2Cl)C1O (stereo not drawn) [Compound 221]	0.5 (≈ 0.28 µM)	1 (≈ 0.56 µM)	≤ 0.06	32 (≈ 17.9 µM)		≤ 0.06	2 (≈ 1.12 µM)	0.71	≤ 0.06	1 (≈ 0.56 µM)	0.5 (≈ 0.28 µM)	≤ 0.06	≤ 0.06		0.041	1 (≈ 0.56 µM)	≤ 0.06	2 (≈ 1.12 µM)	1 (≈ 0.56 µM)	0.5 (≈ 0.28 µM)	MIC [9]: 0.5 µg/mL (≈ 0.28 µM)
CNC(CC(C)C)C(=O)NC1C(=O)NC(CC(N)=O)C(=O)NC2C(=O)NC3C(=O)NC(C(=O)NC(C(=O)O)c4cc(O)cc(O)c4-c4cc3ccc4O)C(OC3CC(C)(N)C(O)C(C)O3)c3ccc(c(Cl)c3)Oc3cc2cc(c3OC2OC(CO)C(O)C(O)C2OC2CC(C)(NCc3ccc(N(C)c4ccccc4)cc3)C(O)C(C)O2)Oc2ccc(cc2Cl)C1O (stereo not drawn) [Compound 178]	0.5 (≈ 0.28 µM)	1 (≈ 0.559 µM)	≤ 0.06	4 (≈ 2.24 µM)	0.25 (≈ 0.14 µM)	0.25 (≈ 0.14 µM)	2 (≈ 1.12 µM)	2.8	≤ 0.06	1 (≈ 0.559 µM)	0.5 (≈ 0.28 µM)	≤ 0.06	≤ 0.06	0.5 (≈ 0.28 µM)	0.13	1 (≈ 0.559 µM)	≤ 0.06	2 (≈ 1.12 µM)	1 (≈ 0.559 µM)	1 (≈ 0.559 µM)	
CNC(CC(C)C)C(=O)NC1C(=O)NC(CC(N)=O)C(=O)NC2C(=O)NC3C(=O)NC(C(=O)NC(C(=O)O)c4cc(O)cc(O)c4-c4cc3ccc4O)C(OC3CC(C)(N)C(O)C(C)O3)c3ccc(c(Cl)c3)Oc3cc2cc(c3OC2OC(CO)C(O)C(O)C2OC2CC(C)(NCc3ccc(-c4ccc(C)cc4)cc3C)C(O)C(C)O2)Oc2ccc(cc2Cl)C1O (stereo not drawn) [Compound 222]	≤ 0.06	1 (≈ 0.56 µM)	≤ 0.06	32 (≈ 17.9 µM)	0.5 (≈ 0.28 µM)	≤ 0.06	1 (≈ 0.56 µM)	0.84	≤ 0.06		0.5 (≈ 0.28 µM)	≤ 0.06		≤ 0.06	0.072		≤ 0.06	1 (≈ 0.56 µM)	1 (≈ 0.56 µM)	≤ 0.06	
